Reference: ChEMBL document CHEMBL1146286, “Synthesis of carbon-11 labeled sulfonanilide analogues as new potential PET agents for imaging of aromatase in breast cancer” (Bioorg Med Chem Lett, 2007)
Calls of active or inactive are those of the source. The calls are words filed in the database; no cut-off is given here.

What was measured:
[1] = tested on: SK-BR-3; test: Cytotoxicity against human SK-BR-3 cells after 24 hrs by MTT assay relative to NS398; assay type: functional, cell-based; details: SK-BR-3, 24 h
[2] = molecular target: T1, Prostaglandin G/H synthase 2 (Homo sapiens) (UniProt P35354); test: Inhibition of COX2
T1 sequence (whole entry): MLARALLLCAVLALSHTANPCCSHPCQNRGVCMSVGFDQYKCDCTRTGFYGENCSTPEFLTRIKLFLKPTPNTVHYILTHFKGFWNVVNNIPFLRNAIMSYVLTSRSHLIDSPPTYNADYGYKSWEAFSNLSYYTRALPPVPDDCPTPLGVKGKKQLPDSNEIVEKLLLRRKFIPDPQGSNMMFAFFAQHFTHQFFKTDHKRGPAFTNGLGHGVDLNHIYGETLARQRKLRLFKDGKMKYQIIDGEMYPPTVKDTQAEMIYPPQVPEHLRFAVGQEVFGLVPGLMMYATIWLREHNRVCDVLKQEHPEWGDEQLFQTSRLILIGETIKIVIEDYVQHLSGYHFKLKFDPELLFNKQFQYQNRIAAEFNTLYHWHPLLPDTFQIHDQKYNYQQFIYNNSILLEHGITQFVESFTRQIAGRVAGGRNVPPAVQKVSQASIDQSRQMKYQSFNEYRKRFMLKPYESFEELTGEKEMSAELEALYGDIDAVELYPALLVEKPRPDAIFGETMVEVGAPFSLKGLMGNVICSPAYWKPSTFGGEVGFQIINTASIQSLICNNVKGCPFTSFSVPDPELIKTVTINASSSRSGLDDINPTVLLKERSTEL

SMILES	IC50 [1] [nM]	Activity [2]
CCCOc1cc([N+](=O)[O-])ccc1N(C)S(C)(=O)=O	1240	inactive
CC(C)Oc1cc([N+](=O)[O-])ccc1N(C)S(C)(=O)=O	1790	inactive
CN(c1ccc([N+](=O)[O-])cc1OCCC1CCCCC1)S(C)(=O)=O	2540	inactive
CN(c1ccc([N+](=O)[O-])cc1OC1CCCC1)S(C)(=O)=O	1090	inactive
CN(c1ccc([N+](=O)[O-])cc1OC1CCCCC1)S(C)(=O)=O	660	inactive
CCC(CC)Oc1cc([N+](=O)[O-])ccc1N(C)S(C)(=O)=O	840	inactive
CS(=O)(=O)Nc1ccc([N+](=O)[O-])cc1OC1CCCCC1 [NS-398]	720	–
